Laboratory results taken from patent publication US8927500B2, “Peptidomimetic macrocycles” (Aileron Therapeutics, Inc., priority 2012, dated 2015).
Where a SMILES comes first, the peptide text is derived from it. Bridges are numbered along the chain shown (N, C = ends). [ ]: non-standard residue; d: D form. Trp(6-Cl) = N[C@@H](Cc1c[nH]c2cc(Cl)ccc12)C(=O)O; R8 = C=CCCCCCC[C@@](C)(N)C(=O)O; hLeu = CC(C)CC[C@H](N)C(=O)O; S5 = C=CCCC[C@](C)(N)C(=O)O

Key:
MDM2 = MDM2 (Homo sapiens, UniProt Q00987); experiment: Competitive fluorescence polarization assay for MDM2; format: binding; conditions: competitive FP assay, MDM2; for IC50: read-out: IC50 (MDM2); for Ki: read-out: Ki (MDM2)
Chain of MDM2 (Q00987 1-125): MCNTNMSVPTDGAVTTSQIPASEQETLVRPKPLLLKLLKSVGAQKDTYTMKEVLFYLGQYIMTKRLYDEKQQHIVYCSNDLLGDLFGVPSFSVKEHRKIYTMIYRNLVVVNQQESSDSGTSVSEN
Experimental: Dilute 1 mM (in 100% DMSO) of FAM labeled linear peptide with DMSO to 100 μM (dilution 1:10). Then, dilute from 100 μM to 10 μM with water (dilution 1:10) and then dilute with FP buffer from 10 μM to 40 nM (dilution 1:250). This is the working solution which will be a 10 nM concentration in well (dilution 1:4). […] Then, dilute from 5 mM to 500 μM with H2O (dilution 1:10) and then dilute with FP buffer from 500 μM to 20 μM (dilution 1:25).
Dilute 1 mM (in 100% DMSO) of FAM labeled linear peptide with DMSO to 100 μM (dilution 1:10). Then, dilute from 100 μM to 10 μM with water (dilution 1:10) and then dilute with FP buffer from 10 μM to 40 nM (dilution 1:250). This is the working solution which will be a 10 nM concentration in well (dilution 1:4). […] Dilute 10 mM (in 100% DMSO) with DMSO to 5 mM (dilution 1:2). Then, dilute from 5 mM to 500 μM with H2O (dilution 1:10) and then dilute with FP buffer from 500 μM to 20 μM (dilution 1:25). […] Transfer 10 μl of serial diluted unlabeled peptides to each well which is filled with 20 μl of 300 nM of protein. • 7. Add 10 μl of 10 nM (4×) of FAM labeled peptide into each well and incubate for 3 hr to read.

SJSA-1 cells = experiment: Cell lysis by peptidomimetic macrocycles (LDH release); format: cell-based; conditions: 1 h at 37C
Caspase 3 = Caspase 3 detection assay in SJSA1 cells; format: cell-based; conditions: 48 h, Caspase 3 activation over DMSO-treated cells; for caspase 0.3 uM: 0.3 uM peptide; for caspase 1 uM: 1 uM peptide; for caspase 3 uM: 3 uM peptide; for caspase 10 uM: 10 uM peptide; for caspase 30 uM: 30 uM peptide
MDMX = target: T1, MDMX (Homo sapiens, UniProt O15151); experiment: Competitive fluorescence polarization assay for MDMX; format: binding; conditions: competitive FP assay; for IC50: read-out: IC50 (MDMX); for Ki: read-out: Ki (MDMX)
T1 sequence (O15151 1-125): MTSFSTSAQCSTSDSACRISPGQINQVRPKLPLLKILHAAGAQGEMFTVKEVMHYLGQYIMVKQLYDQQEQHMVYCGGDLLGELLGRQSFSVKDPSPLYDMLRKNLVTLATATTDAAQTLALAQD

| SMILES | IC50 (MDM2) [nM] | Ki (MDM2) [nM] | 6.25 uM % Lysed cells (1 h LDH) (SJSA-1 cells) [%] | 25 uM % Lysed cells (1 h LDH) (SJSA-1 cells) [%] | 50 uM % Lysed cells (1 h LDH) (SJSA-1 cells) [%] | caspase 0.3 uM (Caspase 3) | caspase 1 uM (Caspase 3) | caspase 3 uM (Caspase 3) | caspase 10 uM (Caspase 3) | caspase 30 uM (Caspase 3) | IC50 (MDMX) [nM] | Ki (MDMX) [nM] |
| --- | --- | --- | --- | --- | --- | --- | --- | --- | --- | --- | --- | --- |
| CC(=O)N[C@@H](C)C(=O)N[C@@H](CC(C)C)C(=O)N[C@H](C(=O)N[C@@H](Cc1ccccc1)C(=O)N[C@]1(C)CCCCCCC=CCCC[C@@](C)(C(=O)N[C@@H](CO)C(=O)N[C@@H](C)C(=O)N[C@@H](C)C(=O)N[C@H](C)C(N)=O)NC(=O)[C@H](CC2CCC2)NC(=O)[C@H](CCC(N)=O)NC(=O)[C@H](C)NC(=O)[C@H](Cc2c[nH]c3ccccc23)NC(=O)[C@H](Cc2ccc(O)cc2)NC(=O)[C@H](CCC(=O)O)NC1=O)[C@@H](C)O (single isomer, unassigned) [compound 355] | < 10 | < 10 | 0 | 0 | 0 | 1 | 4 | 11 | 13 | 30 | 10 to 100 | < 10 |
| CC(=O)N[C@@H](C)C(=O)N[C@@H](CC(C)C)C(=O)N[C@H](C(=O)N[C@@H](Cc1ccccc1)C(=O)N[C@]1(C)CCCCCCC=CCCC[C@@](C)(C(=O)N[C@@H](CO)C(=O)N[C@@H](C)C(=O)N[C@@H](C)C(=O)N[C@@H](C)C(=O)N[C@H](C)C(N)=O)NC(=O)[C@H](CC2CCC2)NC(=O)[C@H](CCC(N)=O)NC(=O)[C@H](C)NC(=O)[C@H](Cc2c[nH]c3ccccc23)NC(=O)[C@H](Cc2ccc(O)cc2)NC(=O)[C@H](CCC(=O)O)NC1=O)[C@@H](C)O (single isomer, unassigned) [compound 357] | < 10 | < 10 | 0 | 0 | 0 | 2 | 7 | 11 | 15 | 23 | 10 to 100 | < 10 |
| CC(=O)N[C@@H](C)C(=O)N[C@@H](C)C(=O)N[C@@H](CC(C)C)C(=O)N[C@H](C(=O)N[C@@H](Cc1ccccc1)C(=O)N[C@]1(C)CCCCCCC=CCCC[C@@](C)(C(=O)N[C@@H](CO)C(=O)N[C@@H](C)C(=O)N[C@@H](C)C(=O)N[C@@H](C)C(=O)N[C@H](C)C(N)=O)NC(=O)[C@H](CC2CCC2)NC(=O)[C@H](CCC(N)=O)NC(=O)[C@H](C)NC(=O)[C@H](Cc2c[nH]c3ccccc23)NC(=O)[C@H](Cc2ccc(O)cc2)NC(=O)[C@H](CCC(=O)O)NC1=O)[C@@H](C)O (single isomer, unassigned) [compound 359] | < 10 | < 10 | 0 | 0 | 0 | 3 | 9 | 11 | 13 | 23 | 10 to 100 | 10 to 100 |
| CC(=O)N[C@@H](CC(C)C)C(=O)N[C@H](C(=O)N[C@@H](Cc1ccccc1)C(=O)N[C@]1(C)CCCCCCC=CCCC[C@@](C)(C(=O)N[C@@H](CO)C(=O)N[C@@H](C)C(=O)N[C@@H](CC(C)C)C(N)=O)NC(=O)[C@H](CC(C)C)NC(=O)[C@H](CCC(N)=O)NC(=O)[C@H](C)NC(=O)[C@H](Cc2c[nH]c3ccccc23)NC(=O)[C@H](Cc2ccc(O)cc2)NC(=O)[C@H](C)NC1=O)[C@@H](C)O [compound 4] (Ac-LTF[R8]AYWAQL[S5]SAL-NH2; staple 4-11) | 10 to 100 | < 10 | −2 | 1 | 2 | – | – | 9 | 37 | 35 | 100 to 1000 | 10 to 100 |
| CC[C@H](C)[C@H](NC(=O)[C@H](C)NC(=O)[C@H](CO)NC(=O)[C@]1(C)CCCC=CCCCCCC[C@@](C)(NC(=O)[C@H](Cc2ccccc2)NC(=O)[C@@H](NC(=O)[C@H](CC(C)C)NC(C)=O)[C@@H](C)O)C(=O)N[C@@H](C)C(=O)N[C@@H](Cc2ccc(O)cc2)C(=O)N[C@@H](Cc2c[nH]c3ccccc23)C(=O)N[C@@H](C)C(=O)N[C@@H](CCC(N)=O)C(=O)N[C@@H](CC(C)C)C(=O)N1)C(N)=O [compound 8] (Ac-LTF[R8]AYWAQL[S5]SAI-NH2; staple 4-11) | 100 to 1000 | 10 to 100 | −1 | 1 | 1 | – | – | 1 | 19 | 25 | 100 to 1000 | 10 to 100 |
| CC(=O)N[C@@H](CC(C)C)C(=O)N[C@H](C(=O)N[C@@H](Cc1ccccc1)C(=O)N[C@]1(C)CCCCCC/C=C/CCC[C@@](C)(C(=O)N[C@@H](CO)C(=O)N[C@@H](C)C(=O)N[C@@H](C)C(N)=O)NC(=O)[C@H](CC(C)C)NC(=O)[C@H](CCC(N)=O)NC(=O)[C@H](C)NC(=O)[C@H](Cc2c[nH]c3cc(Cl)ccc23)NC(=O)[C@H](Cc2ccc(O)cc2)NC(=O)[C@H](C)NC1=O)[C@@H](C)O [compound 99] (Ac-LTF[R8]AY[Trp(6-Cl)]AQL[S5]SAA-NH2; staple (E) 4-11) | < 10 | < 10 | 1.5 | 2 | 3.5 | 1 | – | 7 | 31 | 33 | 100 to 1000 | 10 to 100 |
| CC(=O)N[C@@H](CC(C)C)C(=O)N[C@H](C(=O)N[C@@H](Cc1ccccc1)C(=O)N[C@]1(C)CCCCCC/C=C\CCC[C@@](C)(C(=O)N[C@@H](CO)C(=O)N[C@@H](C)C(=O)N[C@@H](C)C(N)=O)NC(=O)[C@H](CCC(C)C)NC(=O)[C@H](CCC(N)=O)NC(=O)[C@H](C)NC(=O)[C@H](Cc2c[nH]c3ccccc23)NC(=O)[C@H](Cc2ccc(O)cc2)NC(=O)[C@H](C)NC1=O)[C@@H](C)O [compound 114] (Ac-LTF[R8]AYWAQ[hLeu][S5]SAA-NH2; staple (Z) 4-11) | 10 to 100 | < 10 | 3 | 4 | 9 | 1 | – | 6 | 28 | 34 | 100 to 1000 | 10 to 100 |
| CC(=O)N[C@@H](CC(C)C)C(=O)N[C@H](C(=O)N[C@@H](Cc1ccccc1)C(=O)N[C@]1(C)CCCCCC/C=C/CCC[C@@](C)(C(=O)N[C@@H](CO)C(=O)N[C@@H](C)C(=O)N[C@@H](C)C(N)=O)NC(=O)[C@H](CCC(C)C)NC(=O)[C@H](CCC(N)=O)NC(=O)[C@H](C)NC(=O)[C@H](Cc2c[nH]c3ccccc23)NC(=O)[C@H](Cc2ccc(O)cc2)NC(=O)[C@H](C)NC1=O)[C@@H](C)O [compound 115] (Ac-LTF[R8]AYWAQ[hLeu][S5]SAA-NH2; staple (E) 4-11) | < 10 | < 10 | 0 | −1 | 6 | 1 | – | 10 | 26 | 32 | 100 to 1000 | 10 to 100 |
| CC(=O)N[C@@H](CC(C)C)C(=O)N[C@H](C(=O)N[C@@H](Cc1ccccc1)C(=O)N[C@]1(C)CCCCCCC=CCCC[C@@](C)(C(=O)N[C@@H](CO)C(=O)N[C@H](C(=O)N[C@@H](CO)C(N)=O)C(C)C)NC(=O)[C@H](CC(C)C)NC(=O)[C@H](CCC(N)=O)NC(=O)[C@H](C)NC(=O)[C@H](Cc2c[nH]c3ccccc23)NC(=O)[C@H](Cc2ccc(O)cc2)NC(=O)[C@H](C)NC1=O)[C@@H](C)O [compound 121] (Ac-LTF[R8]AYWAQL[S5]SVS-NH2; staple 4-11) | < 10 | < 10 | 1 | 1 | 7 | 1 | – | 5 | 19 | 30 | 100 to 1000 | 10 to 100 |
